According to patent publication US20200011856A1, “Method for Determining the Effectiveness of Treatment for the Prevention of Heartworm Disease” (priority 2017, published 2020):
Several values for one entry are separate records, joined by “and”; a condition that tells them apart may be missing. Identical values can stand only once.

Columns and labels:
[1] = system: Dirofilaria immitis; assay: D. immitis L3 infection of NSG mice (FR3 Missouri strain or strain not stated), treatment, recovery and count of worms at necropsy; type: in vivo; settings: for % Rec (percent of the original 50 Di recovered): 1 mg/kg
[2] = system: Dirofilaria immitis (Merial worms, UC strain); assay: D. immitis L3 infection of NSG mice with Merial worms / UC strain, treatment, recovery and count of worms; type: in vivo; settings: for % Rec, Mean / Mean % Rec: group mean; for Mean Survival / Survival, Mean: in vivo
[3] = NSG mice, 50 Di L3 Merial worms, 1 mg/kg on Days 1, 15, and 30, recovery Days 41 to 43
[4] = NSG mice, 50 Di L3 UC strain, High Dose 2 mg/kg on Days 1, 15, and 30, recovery Days 41 and 42
[5] = NSG mice, 50 Di L3 UC strain, Normal Dose 1 mg/kg on Days 1, 15, and 30, recovery Days 41 and 42

For `CC(C)C[C@H]1C(=O)O[C@H](C)C(=O)N(C)[C@@H](CC(C)(C)F)C(=O)O[C@H](Cc2ccc(C3CCOCC3)cc2)C(=O)N(C)[C@@H](CC(C)C)C(=O)O[C@H](C)C(=O)N(C)[C@@H](CC(C)(C)F)C(=O)O[C@H](Cc2ccc(C3CCOCC3)cc2)C(=O)N1C` [compound 8800], the “% Red” value ([1]; 8800 5 mg/kg Days 1, 15, 30, 50 Di L3 per NSG mouse, Table 14, vs Control) was 100%, the “% Rec, Mean” value ([1]; 8800 5 mg/kg Days 1, 15, 30, 50 Di L3 per NSG mouse, recovery Days 41 to 42, Table 14, group mean) was 0% and the “% Rec” value ([1]; 8800 5 mg/kg Days 1, 15, 30, 50 Di L3 per NSG mouse, recovery Days 41 to 42, Table 14, individual mice) was 0%. For the same compound, the “% Red” value ([1]; NSG mice, 50 Di L3, 2x (1 mg/kg) at Days 1 and 30, recovery Days 41 to 43) was 38%, the “% Red” value ([1]; NSG mice, 50 Di L3 Day 0, 1 mg/kg EMO or 8800 on Days 30 and 60, recovery Days 83 and 84) was 43% and the “% Red (percent reduction in percent of Di recovered compared to control)” value ([1]; NSG mice, 50 Di L3 Day 0, 1 mg/kg on Day 30, recovery Days 41 to 43) was 23%. The “% Red” value ([1]; Table 9, NSG mice, 50 Di L3, 1 mg/kg on Days 1, 15, and 30, recovery Days 41 to 43) was 73%, the “Mean % Rec” value ([1]; Table 9, group mean, NSG mice, 50 Di L3, 1 mg/kg on Days 1, 15, and 30, recovery Days 41 to 43) was 9% and the “% Rec” value ([1]; Table 9, individual mouse, NSG mice, 50 Di L3, 1 mg/kg on Days 1, 15, and 30, recovery Days 41 to 43) was 8% (3×) and 10% and 28% and 16% and 0%. The “% Red” value ([1]; Table 11, NSG mice, 50 Di L3, 0.3 mg/kg on Days 1, 15, and 30, recovery Days 41 to 42) was 0%, the “% Red” value ([1]; Table 11, NSG mice, 50 Di L3, 1 mg/kg on Days 1, 15, and 30, recovery Days 41 to 42) was 71% and the “Mean % Rec” value ([1]; Table 11, group mean, NSG mice, 50 Di L3, 0.3 mg/kg on Days 1, 15, and 30, recovery Days 41 to 42) was 26%. The “Mean % Rec” value ([1]; Table 11, group mean, NSG mice, 50 Di L3, 1 mg/kg on Days 1, 15, and 30, recovery Days 41 to 42) was 7%, the “% Rec” value ([1]; Table 11, individual mouse, NSG mice, 50 Di L3, 0.3 mg/kg on Days 1, 15, and 30, recovery Days 41 to 42) was 16% (2×) and 36% (3×) and 14% and the “% Rec” value ([1]; Table 11, individual mouse, NSG mice, 50 Di L3, 1 mg/kg on Days 1, 15, and 30, recovery Days 41 to 42) was 4% (2×) and 2% and 16% and 8% and 6%. The “Mean % Rec” value ([1]; group mean, NSG mice, 50 Di L3, 2x (1 mg/kg) at Days 1 and 30, recovery Days 41 to 43) was 21%, the “Mean % Rec” value ([1]; group mean, NSG mice, 50 Di L3 Day 0, 1 mg/kg EMO or 8800 on Days 30 and 60, recovery Days 83 and 84) was 8% and the “Mean % Rec” value ([1]; group mean, NSG mice, 50 Di L3 Day 0, 1 mg/kg on Day 30, recovery Days 41 to 43) was 31%. For the same compound, the Survival ([1]; in vivo, 5 mg/kg) was 0, the “Survival, Mean” value ([1]; in vivo, 5 mg/kg) was 0 and the “% Rec” value ([1]; individual mouse, NSG mice, 50 Di L3, 2x (1 mg/kg) at Days 1 and 30, recovery Days 41 to 43) was 22% and 16% and 12% and 26% and 20% and 32%. The “% Rec (percent of the original 50 Di recovered)” value ([1]; individual mouse, NSG mice, 50 Di L3 Day 0, 1 mg/kg EMO or 8800 on Days 30 and 60, recovery Days 83 and 84) was 14% and 4% (2×) and 10% and 12% and 6%, the “% Rec (percent of the original 50 Di recovered)” value ([1]; individual mouse, NSG mice, 50 Di L3 Day 0, 1 mg/kg on Day 30, recovery Days 41 to 43) was 24% (3×) and 36% and 28% and 52% and the “% Rec, Mean” value ([2]; 8800 1 mg/kg Days 1, 15, 30, 50 Di L3 (UC Strain) per NSG mouse, recovery Days 41 to 43) was 10%. The “% Rec” value ([2]; 8800 1 mg/kg Days 1, 15, 30, 50 Di L3 (UC Strain) per NSG mouse, recovery Days 41 to 43, individual mice, 1 mg/kg) was 10% (2×) and 14% and 16% and 4% and 6% and 12%, the “% Red” value ([2]; 8800 1 mg/kg Days 1, 15, 30, 50 Di L3 (UC Strain) per NSG mouse, vs Control) was 73% and the “% Rec, Mean” value ([2]; 8800 2 mg/kg Days 1, 15, 30, 50 Di L3 (UC Strain) per NSG mouse, recovery Days 41 to 43) was 2%. The “% Rec” value ([2]; 8800 2 mg/kg Days 1, 15, 30, 50 Di L3 (UC Strain) per NSG mouse, recovery Days 41 to 43, individual mice, 2 mg/kg) was 2% (3×) and 0% (2×) and 6% and 4%, the “% Red” value ([2]; 8800 2 mg/kg Days 1, 15, 30, 50 Di L3 (UC Strain) per NSG mouse, vs Control) was 94% and the “% Red” value [2, 3] was 65%. The “% Red” value [2, 4] was 94%, the “% Red” value [2, 5] was 81% and the “Mean % Rec” value [2, 3] was 12%. For the same compound, the “Mean % Rec” value [2, 4] was 2%, the “Mean % Rec” value [2, 5] was 7% and the “Mean Survival” value ([2]; 1 mg/kg) was 6 and 4. For the same compound, the “Survival, Mean” value ([2]; 1 mg/kg) was 5, the “Mean Survival” value ([2]; 2 mg/kg) was 1 and the “Survival, Mean” value ([2]; 2 mg/kg) was 1. The “% Rec” value ([2]; individual mouse, NSG mice, 50 Di L3 Merial worms, 1 mg/kg on Days 1, 15, and 30, recovery Days 41 to 43, 1 mg/kg) was 0% (2×) and 12% (3×) and 8% and 32% and 16%, the “% Rec” value ([2]; individual mouse, NSG mice, 50 Di L3 UC strain, High Dose 2 mg/kg on Days 1, 15, and 30, recovery Days 41 and 42, 2 mg/kg) was 2% (3×) and 0% (3×) and 8% and the “% Rec” value ([2]; individual mouse, NSG mice, 50 Di L3 UC strain, Normal Dose 1 mg/kg on Days 1, 15, and 30, recovery Days 41 and 42, 1 mg/kg) was 6% (2×) and 4% and 2% and 8% and 10% and 14%.
